The target in the test is KRAS protein containing G12D mutation (Homo sapiens (Human), UniProt P01116, G12D). Kind of test: SOS-catalyzed nucleotide exchange assay (GNE), TR-FRET. Type of test: biochemical. The settings on record: biotinylated KRAS G12D, SOS and GTP, 60-minute incubation. The protocol: Compounds are added to this complex and then after a 60-minute incubation time the mixture is treated with SOS and unlabeled GTP. Small molecule inhibitors stabilize the Bodipy-GDP complex whereas the untreated protein rapidly exchanges Bodipy-GDP for unlabeled GTP resulting in reduced TR-FRET signal.
This solution is referred to as biotinylated KRAS G12D stock solution.
(In general: TR-FRET usually uses a lanthanide donor and a delayed reading to cut background.)

Structures can show the parent of a compound that is named as a salt.

Sequence of KRAS protein containing G12D mutation (P01116 other isoform, or with tags, fused parts or gaps G12D (already in the parent)): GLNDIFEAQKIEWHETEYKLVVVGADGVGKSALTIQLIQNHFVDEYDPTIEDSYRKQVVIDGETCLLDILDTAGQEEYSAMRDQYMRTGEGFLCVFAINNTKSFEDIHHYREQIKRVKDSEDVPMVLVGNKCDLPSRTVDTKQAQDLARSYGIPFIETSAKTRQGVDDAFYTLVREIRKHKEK

As for `Oc1cc(-c2c(Cl)cc3c(N4CC5CCC(C4)N5)nc(OCC4CNC4)nc3c2F)c2ccccc2c1` [Example 109, 4-(2-(azetidin-3-ylmethoxy)-4-(3,8-diazabicyclo[3.2.1]octan-3-yl)-6-chloro-8-fluoroquinazolin-7-yl)naphthalen-2-ol, TFA], half-maximal inhibition (IC50) required 2680 nM.

Turning to `CC(O)(COc1nc(N2CC3CC[C@@](C)(C2)N3)c2cc(F)c(-c3cc(O)cc4cccc(Cl)c34)c(F)c2n1)CN1CC[C@@H](F)C1` (single isomer, unassigned) [Ex. 210], half-maximal inhibition (IC50) was put at 2150 nM. `Cc1cccc2cc(O)cc(-c3c(F)cc4c(N5CC6CC[C@@](C)(C5)N6)nc(OC[C@@]56CCCN5C[C@H](F)C6)nc4c3F)c12` (single isomer, unassigned) [Ex. 179b] returned an IC50 of 727 nM.

`C#Cc1cccc2cc(O)cc(-c3c(F)cc4c(N5CC6(C)CCC(C)(C5)N6)nc(OC[C@@]56CCCN5C[C@H](F)C6)nc4c3F)c12` [Example 124, 4-(4-(1,5-dimethyl-3,8-diazabicyclo[3.2.1]octan-3-yl)-6,8-difluoro-2-(((2R,7aS)-2-fluorotetrahydro-1H-pyrrolizin-7a(5H)-yl)methoxy)quinazolin-7-yl)-5-ethynylnaphthalen-2-ol]: 1.21 nM corresponded to half-maximal inhibition (IC50). `C[C@]12CC[C@H](CN(c3nc(OCC4(N)CCOC4)nc4c(F)c(-c5cc(O)cc6ccccc56)c(F)cc34)C1)N2` (stereo partly drawn) [Example 113, 4-(2-((3-amino-tetrahydrofuran-3-yl)methoxy)-6,8-difluoro-4-((1S,5R)-1-methyl-3,8-diazabicyclo [3.2.1]octan-3-yl)quinazolin-7-yl)naphthalen-2-ol, TFA]: inhibition was half-maximal at 697 nM (IC50).

The compound `C[C@]12CC[C@H](CN(c3nc(OC[C@@]45CCCN4C[C@H](F)C5)nc4c(F)c(-c5cccn6cccc56)c(F)cc34)C1)N2` [Ex. 130, 6,8-difluoro-2-(((2R,7aS)-2-fluorotetrahydro-1H-pyrrolizin-7a(5H)-yl)methoxy)-7-(indolizin-8-yl)-4-((1S,5R)-1-methyl-3,8-diazabicyclo[3.2.1]octan-3-yl)quinazoline, 2TFA] had an IC50 of 4190 nM. With `Cc1nc(N)c(C)c(-c2c(F)cc3c(N4C[C@H]5CC[C@@H](C4)N5)nc(OC[C@@]45CCCN4C[C@H](F)C5)nc3c2F)c1C1CC1` [Ex. 198, 4-(4-((1R,5S)-3,8-diazabicyclo[3.2.1]-octan-3-yl)-6,8-difluoro-2-(((2R,7aS)-2-fluorotetrahydro-1H-pyrrolizin-7a(5H)-yl)-methoxy)quinazolin-7-yl)-5-cyclopropyl-3,6-dimethylpyridin-2-amine] the figure was 1790 nM; with `Cc1nc(N)cc(-c2c(F)cc3c(N4C[C@H]5CC[C@@](C)(C4)N5)nc(OCC4(CN5CCOCC5)CC4)nc3c2F)c1C(F)(F)F` (single isomer, unassigned) [Ex. 139a], 1670 nM; with `NC1(COc2nc(N3CC4CCC(C3)N4)c3cc(Cl)c(-c4cc(O)cc5ccccc45)c(F)c3n2)CCOC1` (stereo not drawn) [Example 111, 4-(2-((3-amino-tetrahydrofuran-3-yl)methoxy)-4-(3,8-diazabicyclo[3.2.1]octan-3-yl)-6-chloro-8-fluoroquinazolin-7-yl) naphthalen-2-ol, TFA], 2470 nM. `Oc1cc(-c2c(Cl)cc3c(N4CC5CCC(C4)N5)nc(OCC4(F)CNC4)nc3c2F)c2ccccc2c1` [Example 110, 4-(4-(3,8-diazabicyclo [3.2.1]octan-3-yl)-6-chloro-8-fluoro-2-((3-fluoroazetidin-3-yl)methoxy)quinazolin-7-yl)naphthalen-2-ol, TFA] returned a 50% inhibitory concentration (IC50) of 770 nM. `NC1(COc2nc(N3CC4CCC(C3)N4)c3cc(Cl)c(-c4cc(O)cc5ccccc45)c(F)c3n2)CCC(O)C1` (stereo not drawn) [Example 108, 4-(2-((1-amino-3-hydroxycyclopentyl)methoxy)-4-(3,8-diazabicyclo[3.2.1]octan-3-yl)-6-chloro-8-fluoroquinazolin-7-yl)naphthalen-2-ol, TFA] returned a 50% inhibitory concentration (IC50) of 3280 nM.

As to `C[C@]12CCC(CN(c3nc(OC[C@@]45CCCN4C[C@H](F)C5)nc4c(F)c(-c5cc(Cl)cc6cccc(Cl)c56)c(F)cc34)C1)N2` (single isomer, unassigned) [Ex. 184], half-maximal inhibition (IC50) required 4720 nM.

The compound `Cc1nc2[nH]nc(C)c2c(-c2c(F)cc3c(N4C[C@H]5CC[C@@H](C4)N5)nc(OC[C@@]45CCCN4C[C@H](F)C5)nc3c2F)c1C(F)(F)F` (single isomer, unassigned) [250a] registered an IC50 of 400 nM. As for `NC1(COc2nc(N3CC4CCC(C3)N4)c3cc(Cl)c(-c4cc(O)cc5ccccc45)c(F)c3n2)CCCC1` [Example 112, 4-(2-((1-aminocyclo-pentyl)methoxy)-4-(3,8-diazabicyclo[3.2.1]octan-3-yl)-6-chloro-8-fluoroquinazolin-7-yl)naphthalen-2-ol, TFA], inhibition was half-maximal at 2730 nM (IC50). Take `CNc1cc(C)c(C(F)(F)F)c(-c2c(F)cc3c(N4CC5CCC(C4)N5)nc(OCC4(CN5CCOCC5)CC4)nc3c2F)n1` (single isomer, unassigned) [Ex. 137a]: the IC50 was determined as 1610 nM.

Turning to `C#Cc1cccc2cc(O)cc(-c3c(F)cc4c(N5C[C@]6(C)CC[C@](F)(C5)N6)nc(OC[C@@]56CCCN5C[C@H](F)C6)nc4c3F)c12` [compound 240, 4-(6,8-difluoro-4-((18,5S)-1-fluoro-5-methyl-3,8-diazabicyclo[3.2.1]octan-3-yl)-2-(((2R,7aS)-2-fluorotetrahydro-1H-pyrrolizin-7a(5H)-yl)methoxy)quinazolin-7-yl)-5-ethynylnaphthalen-2-ol], the IC50 is 135 nM.

With `Cc1nc(N)cc(-c2c(F)cc3c(N4C[C@H]5CC[C@@](C)(C4)N5)nc(OCC4(CN5CCOCC5)CC4)nc3c2F)c1C(F)(F)F` (single isomer, unassigned) [Ex. 139b], 287 nM corresponded to half-maximal inhibition (IC50). `C#Cc1c(F)ccc2cc(N)nc(-c3c(F)cc4c(N5C[C@H]6CC[C@@H](C5)N6)nc(OC[C@@]56CCCN5C[C@H](F)C6)nc4c3F)c12` (single isomer, unassigned) [252b]: the IC50 came to 204 nM. With `C[C@@]12CC[C@H](CN(c3nc(OC[C@@]45CCCN4C[C@H](F)C5)nc4c(F)c(-c5cc(O)c(Cl)c6cccc(Cl)c56)c(F)cc34)C1)N2` (single isomer, unassigned) [Ex. 174a] the figure was 3130 nM; with `C[C@]12CC[C@H](CN(c3nc(OC[C@H]4CCN(C5CCCCC5O)C4)nc4c(F)c(-c5cc(O)cc6ccccc56)c(Cl)cc34)C1)N2` (stereo partly drawn) [Example 120, 4-(6-chloro-8-fluoro-2-(((3S)-1-(2-hydroxy-cyclohexyl)pyrrolidin-3-yl)methoxy)-4-((1S,5R)-1-methyl-3,8-diazabicyclo [3.2.1]octan-3-yl)quinazolin-7-yl)naphthalen-2-ol, TFA], 1440 nM. For the compound `C#Cc1c(F)ccc2ccc(F)c(-c3c(F)cc4c(N5CC6CC[C@@](C)(C5)N6)nc(OC[C@@]56CCCN5C[C@H](F)C6)nc4c3F)c12` (single isomer, unassigned) [246a], inhibition was half-maximal at 41.3 nM (IC50).

With `C[C@]12CCC(CN(c3nc(OCC45CCCN4CC(C(F)F)C5)nc4c(F)c(-c5cc(O)cc6cccc(Cl)c56)c(F)cc34)C1)N2` (single isomer, unassigned) [Ex. 173-2b], the 50% inhibitory concentration (IC50) was found to be 2230 nM. As to `Cc1cc(N)nc(-c2c(Cl)cc3c(N4CC5CC(O)C(C4)N5)nc(OC[C@@]45CCCN4C[C@H](F)C5)nc3c2F)c1C(F)(F)F` (single isomer, unassigned) [249a], the IC50 amounted to 351 nM. With `CNc1cc(C)c(C(F)(F)F)c(-c2c(F)cc3c(N4CC5CCC(C4)N5)nc(OCC4(CN5CCOCC5)CC4)nc3c2F)n1` (single isomer, unassigned) [Ex. 137b] the figure was 4820 nM; with `C[C@]12CC[C@H](CN(c3nc(OCC45CCCN4CCC(F)(F)C5)nc4c(F)c(-c5cc(O)cc6cccc(Cl)c56)c(F)cc34)C1)N2` (single isomer, unassigned) [Example 116a], 2890 nM; with `Cc1cc(N)nc(-c2c(F)cc3c(N4CC5CC[C@@](C)(C4)N5)nc(OC[C@@]45CCCN4C[C@H](F)C5)nc3c2F)c1C(F)(F)F` (single isomer, unassigned) [Ex. 200b], 1130 nM. With `C[C@]12CCC(CN(c3nc(OC[C@@H]4CC[C@H]5CC(F)(F)CCN45)nc4c(F)c(-c5cc(O)cc6cccc(Cl)c56)c(F)cc34)C1)N2` (single isomer, unassigned) [Ex. 175b] the figure was 11100 nM. Compound `C#Cc1c(F)ccc2ccc(F)c(-c3c(F)cc4c(N5CC6CC[C@@](C)(C5)N6)nc(OC[C@@]56CCCN5C[C@H](F)C6)nc4c3F)c12` (single isomer, unassigned) [246b] displayed an IC50 of 165 nM. Compound `C[C@]12CC[C@H](CN(c3nc(OC[C@@]45CCCN4C[C@H](F)C5)nc4c(F)c(-c5cc(F)cc6cccc(Cl)c56)c(F)cc34)C1)N2` [Ex. 158, 7-(8-chloro-3-fluoro-naphthalen-1-yl)-6,8-difluoro-2-(((2R,7aS)-2-fluorotetrahydro-1H-pyrrolizin-7a(5H)-yl)-methoxy)-4-((1S,5R)-1-methyl-3,8-diaza-bicyclo[3.2.1]octan-3-yl)quinazoline] showed an IC50 of 1280 nM. Turning to `Cc1cc(N)nc(-c2c(Cl)cc3c(N4CC5CCC(C4)N5)nc(OC[C@@]45CCCN4[C@H](CO)CC5)nc3c2F)c1C(F)(F)F` [Ex. 150], the IC50 is 2.04 nM.

Take `Cc1cc2[nH]nc(C)c2c(-c2c(F)cc3c(N4CC5CCC(C4)N5)nc(OC[C@@]45CCCN4C[C@H](F)C5)nc3c2F)c1OC(F)F` (single isomer, unassigned) [Ex. 233b]: half-maximal inhibition (IC50) was put at 6.11 nM. `C[C@@]12CC[C@H](CN(c3nc(OC[C@@]45CCCN4C[C@H](F)C5)nc4c(F)c(-c5cc(O)c(Cl)c6cccc(Cl)c56)c(F)cc34)C1)N2` (single isomer, unassigned) [Ex. 174b] yielded an IC50 of 1000 nM. To `C[C@]12CC[C@H](CN(c3nc(OC[C@@H]4CCCN4CCO)nc4c(F)c(-c5cc(O)cc6ccccc56)c(F)cc34)C1)N2` [Ex. 225, 4-(6,8-difluoro-2-(((S)-1-(2-hydroxyethyl)pyrrolidin-2-yl)methoxy)-4-((1S,5R)-1-methyl-3,8-diazabicyclo[3.2.1]octan-3-yl)quinazolin-7-yl)naphthalen-2-ol] belongs 69.8 nM.

As a reminder, the IC50 is the concentration needed to halve the response being measured.

The record behind these values is patent US20240239788A1, “SMALL MOLECULE INHIBITORS OF KRAS G12D MUTANT” (Merck Sharp & Dohme LLC, priority 2021, published 2024).
